Reference: patent US20260015350A1, “AZAQUINAZOLINE PAN-KRAS INHIBITORS” (Mirati Therapeutics, Inc., priority 2022, published 2026)

What was measured:
KRas^G12S = molecular target: T1, KRas^G12S (Homo sapiens, UniProt P01116, G12S); experiment: KRas binding assay (TR-FRET tracer displacement), KRas G12S; settings: TR-FRET tracer displacement, KRas G12S
T1 construct: Biotinylated KRas (corresponding to amino acids 1-169, produced at Accelegan Inc.); biotin (biotinylated); purchased Accelegan Inc

KRas^G12A = molecular target: T2, KRas^G12A (Homo sapiens, UniProt P01116, G12A); experiment: KRas binding assay (TR-FRET tracer displacement), KRas G12A; settings: TR-FRET tracer displacement, KRas G12A
T2 construct: Biotinylated KRas (corresponding to amino acids 1-169, produced at Accelegan Inc.); biotin (biotinylated); purchased Accelegan Inc

KRas^Q61H = molecular target: T3, KRas^Q61H (Homo sapiens, UniProt P01116, Q61H); experiment: KRas binding assay (TR-FRET tracer displacement), KRas Q61H; settings: TR-FRET tracer displacement, KRas Q61H
T3 construct: Biotinylated KRas (corresponding to amino acids 1-169, produced at Accelegan Inc.); biotin (biotinylated); purchased Accelegan Inc

KRas^G12V = molecular target: T4, KRas^G12V (Homo sapiens, UniProt P01116, G12V); experiment: KRas binding assay (TR-FRET tracer displacement), KRas G12V
T4 construct: Biotinylated KRas (corresponding to amino acids 1-169, produced at Accelegan Inc.); biotin (biotinylated); purchased Accelegan Inc

[1] = tested on: KRas-mediated phosphorylation of ERK in AsPC-1 cells; experiment: Inhibition of KRas-mediated phosphorylation of ERK (Cisbio HTRF pERK), AsPC-1 cells; type: cell-based; settings: Homo sapiens; for IC50: ASPC1, AsPC-1 cells, HTRF pERK; for inhibition at 0.1 µM: ASPC1, 3 h, single point, 100 nM compound, 3 hrs, AsPC-1 cells
In short: (§1)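 Min control wells contained 0.2 uM Trametinib, while test compounds ran as 10 doses (3-fold, top 10 uM; 0.8% DMSO final) on cells for 3 hrs. After 40 mins lysis at 4° C, lysates were probed with HTRF antibodies for 2 hrs at room temperature.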

KRas^G12D = molecular target: T5, KRas^G12D (Homo sapiens, UniProt P01116, G12D); experiment: KRas binding assay (TR-FRET tracer displacement), KRas G12D
T5 construct: Biotinylated KRas (corresponding to amino acids 1-169, produced at Accelegan Inc.); biotin (biotinylated); purchased Accelegan Inc

KRas^G13D = molecular target: T6, KRas^G13D (Homo sapiens, UniProt P01116, G13D); experiment: KRas binding assay (TR-FRET tracer displacement), KRas G13D; settings: TR-FRET tracer displacement, KRas G13D
T6 construct: Biotinylated KRas (corresponding to amino acids 1-169, produced at Accelegan Inc.); biotin (biotinylated); purchased Accelegan Inc

[2] = tested on: KRas-mediated phosphorylation of ERK in H727 cells; experiment: Inhibition of KRas-mediated phosphorylation of ERK (Cisbio HTRF pERK), H727 cells; type: cell-based; settings: Homo sapiens; for IC50: NCI-H727, H727 cells, HTRF pERK; for inhibition at 0.1 µM: NCI-H727, 3 h, single point, 100 nM compound, 3 hrs, H727 cells
In short: as §1

KRas^G12C = molecular target: T7, KRas^G12C (Homo sapiens, UniProt P01116, G12C); experiment: KRas binding assay (TR-FRET tracer displacement), KRas G12C; settings: TR-FRET tracer displacement, KRas G12C
T7 construct: Biotinylated KRas (corresponding to amino acids 1-169, produced at Accelegan Inc.); biotin (biotinylated); purchased Accelegan Inc

KRas^G12R = molecular target: T8, KRas^G12R (Homo sapiens, UniProt P01116, G12R); experiment: KRas binding assay (TR-FRET tracer displacement), KRas G12R
T8 construct: Biotinylated KRas (corresponding to amino acids 1-169, produced at Accelegan Inc.); biotin (biotinylated); purchased Accelegan Inc

KRas^WT = molecular target: T9, KRas^WT (Homo sapiens, UniProt P01116); experiment: KRas binding assay (TR-FRET tracer displacement), KRas WT; settings: TR-FRET tracer displacement, KRas WT
T9 construct: Biotinylated KRas (corresponding to amino acids 1-169, produced at Accelegan Inc.); biotin (biotinylated); purchased Accelegan Inc
T9 sequence (P01116 1-169 isoform P01116-2): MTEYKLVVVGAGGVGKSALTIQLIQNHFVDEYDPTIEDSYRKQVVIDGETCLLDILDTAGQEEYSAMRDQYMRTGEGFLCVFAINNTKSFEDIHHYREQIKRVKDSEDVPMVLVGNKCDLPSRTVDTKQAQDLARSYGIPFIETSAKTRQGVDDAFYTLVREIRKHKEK

T5 sequence (P01116 1-169 isoform P01116-2 G12D): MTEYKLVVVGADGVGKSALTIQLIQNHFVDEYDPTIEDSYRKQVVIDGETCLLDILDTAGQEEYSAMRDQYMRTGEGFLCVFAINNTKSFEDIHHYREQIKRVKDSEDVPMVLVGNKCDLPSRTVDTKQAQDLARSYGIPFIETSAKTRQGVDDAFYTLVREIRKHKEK
T7 sequence (P01116 1-169 isoform P01116-2 G12C): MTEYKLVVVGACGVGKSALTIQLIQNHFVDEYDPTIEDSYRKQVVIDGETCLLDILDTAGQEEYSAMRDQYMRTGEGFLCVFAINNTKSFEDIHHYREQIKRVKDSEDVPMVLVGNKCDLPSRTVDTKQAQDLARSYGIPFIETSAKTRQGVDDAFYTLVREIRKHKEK
T1 sequence (P01116 1-169 isoform P01116-2 G12S): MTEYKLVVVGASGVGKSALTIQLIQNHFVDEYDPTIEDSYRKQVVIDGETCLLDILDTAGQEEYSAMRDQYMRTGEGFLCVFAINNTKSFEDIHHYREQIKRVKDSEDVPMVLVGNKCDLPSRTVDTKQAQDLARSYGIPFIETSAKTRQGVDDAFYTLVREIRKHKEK
T6 sequence (P01116 1-169 isoform P01116-2 G13D): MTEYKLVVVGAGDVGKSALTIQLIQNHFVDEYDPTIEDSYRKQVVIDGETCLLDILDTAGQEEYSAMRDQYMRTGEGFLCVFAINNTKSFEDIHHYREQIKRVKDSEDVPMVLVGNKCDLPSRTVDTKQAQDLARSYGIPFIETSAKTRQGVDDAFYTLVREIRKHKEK
T3 sequence (P01116 1-169 isoform P01116-2 Q61H): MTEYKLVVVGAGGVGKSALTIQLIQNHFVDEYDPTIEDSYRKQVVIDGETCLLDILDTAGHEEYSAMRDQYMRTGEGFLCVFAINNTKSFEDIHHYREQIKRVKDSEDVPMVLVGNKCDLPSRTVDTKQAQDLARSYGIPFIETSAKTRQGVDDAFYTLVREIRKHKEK
T2 sequence (P01116 1-169 isoform P01116-2 G12A): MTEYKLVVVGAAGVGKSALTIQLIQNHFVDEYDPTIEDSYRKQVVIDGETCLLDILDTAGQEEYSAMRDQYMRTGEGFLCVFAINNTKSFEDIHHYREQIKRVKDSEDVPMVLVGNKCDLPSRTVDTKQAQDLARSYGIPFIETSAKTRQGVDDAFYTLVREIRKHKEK
T4 sequence (P01116 1-169 isoform P01116-2 G12V): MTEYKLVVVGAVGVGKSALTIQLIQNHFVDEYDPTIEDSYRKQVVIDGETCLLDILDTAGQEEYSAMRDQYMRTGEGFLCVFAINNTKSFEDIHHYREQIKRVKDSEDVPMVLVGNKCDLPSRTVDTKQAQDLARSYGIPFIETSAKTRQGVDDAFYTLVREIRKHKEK
T8 sequence (P01116 1-169 isoform P01116-2 G12R): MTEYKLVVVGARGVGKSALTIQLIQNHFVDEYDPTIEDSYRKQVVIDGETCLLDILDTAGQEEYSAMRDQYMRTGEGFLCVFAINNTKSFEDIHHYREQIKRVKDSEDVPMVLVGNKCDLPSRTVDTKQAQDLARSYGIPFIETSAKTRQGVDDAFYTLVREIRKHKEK

Row | IC50 (KRas^G12S) [nM] | IC50 (KRas^G12A) [nM] | IC50 (KRas^Q61H) [nM] | IC50 (KRas^G12V) [nM] | IC50 [1] [nM] | IC50 (KRas^G12D) [nM] | IC50 (KRas^G13D) [nM] | IC50 [2] [nM] | IC50 (KRas^G12C) [nM] | IC50 (KRas^G12R) [nM] | IC50 (KRas^WT) [nM] | SMILES | inhibition at 0.1 µM [1] [%] | inhibition at 0.1 µM [2] [%]
1 | < 2 | 2 | < 2 | < 2 | > 10000 | < 2 | 3 | > 10000 | < 2 | < 2 | < 2 | O=C1NCC2(CCCN(c3nc(OCC45CCCN4CCC5)nc4c(F)c(-c5cc(O)cc(Cl)c5C5CC5)ncc34)C2)N1 (stereo not drawn) [Example 741, 7-(7-(3-chloro-2-cyclopropyl-5-hydroxyphenyl)-8-fluoro-2-((hexahydro-1H-pyrrolizin-7a-yl)methoxy)pyrido[4,3-d]pyrimidin-4-yl)-1,3,7-triazaspiro[4.5]decan-2-one] | – | –
2 | 8 | 8 | 7 | 3 | 3690 | 8 | 9 | 1100 | 6 | 20 | 9 | Oc1cc(Cl)c(C2CC2)c(-c2ncc3c(N4CCC[C@]5(C4)C[C@@H](O)C5)nc(OCC45CCCN4CCC5)nc3c2F)c1 [Example 743, (2r,4s)-6-(7-(3-chloro-2-cyclopropyl-5-hydroxyphenyl)-8-fluoro-2-((tetrahydro-1H-pyrrolizin-7a(5H)-yl)methoxy)pyrido[4,3-d]pyrimidin-4-yl)-6-azaspiro[3.5]nonan-2-ol] | – | –
3 | 11 | 14 | 9 | 11 | > 10000 | 16 | 11 | > 10000 | 11 | 9 | 13 | O=C1NC(=O)C2(CCCN(c3nc(OCC45CCCN4CCC5)nc4c(F)c(-c5c6ccccc6cc6[nH]ncc56)ncc34)C2)N1 (stereo not drawn) [Example 755, 7-(7-(1H-benzo[f]indazol-4-yl)-8-fluoro-2-((hexahydro-1H-pyrrolizin-7a-yl)methoxy)pyrido[4,3-d]pyrimidin-4-yl)-1,3,7-triazaspiro[4.5]decane-2,4-dione] | – | –
4 | 13 | 14 | 13 | 10 | > 10000 | 11 | 13 | > 10000 | 12 | 17 | 13 | O=C1NCC2(CCCN(c3nc(OCC45CCCN4CCC5)nc4c(F)c(-c5c6ccccc6cc6[nH]ncc56)ncc34)C2)N1 (stereo not drawn) [Example 756, 7-(7-(1H-benzo[f]indazol-4-yl)-8-fluoro-2-((hexahydro-1H-pyrrolizin-7a-yl)methoxy)pyrido[4,3-d]pyrimidin-4-yl)-1,3,7-triazaspiro[4.5]decan-2-one] | – | –
5 | 7 | 8 | 5 | 4 | > 10000 | 8 | 7 | > 10000 | 7 | 6 | 8 | O=C1NC(=O)C2(CCCN(c3nc(OC[C@@]45CCCN4C[C@H](F)C5)nc4c(F)c(-c5c6ccccc6cc6[nH]ncc56)ncc34)C2)N1 (stereo partly drawn) [Example 759, 7-(7-(1H-benzo[f]indazol-4-yl)-8-fluoro-2-(((2R,7aS)-2-fluorohexahydro-1H-pyrrolizin-7a-yl)methoxy)pyrido[4,3-d]pyrimidin-4-yl)-1,3,7-triazaspiro[4.5]decane-2,4-dione] | – | –
6 | 76 | 91 | 66 | 67 | > 10000 | 76 | 72 | > 10000 | 73 | 170 | 88 | O=C1NCC2(CCCN(c3nc(OC[C@@]45CCCN4C[C@H](F)C5)nc4c(F)c(-c5c6ccccc6cc6[nH]ncc56)ncc34)C2)N1 (stereo partly drawn) [Example 760, 7-(7-(1H-benzo[f]indazol-4-yl)-8-fluoro-2-(((2R,7aS)-2-fluorohexahydro-1H-pyrrolizin-7a-yl)methoxy)pyrido[4,3-d]pyrimidin-4-yl)-1,3,7-triazaspiro[4.5]decan-2-one] | – | –
7 | 1690 | 2410 | 3930 | 1660 | > 10000 | 5530 | 2410 | > 10000 | 2390 | 3120 | 3090 | Oc1cc(-c2ncc3c(N4C[C@@H]5C[C@H](C4)[C@H](O)C5)nc(OC[C@@]45CCCN4C[C@H](F)C5)nc3c2F)c2ccccc2c1Cl [Example 764, (1R,5R,6R)-3-(7-(4-chloro-3-hydroxynaphthalen-1-yl)-8-fluoro-2-(((2R,7aS)-2-fluorohexahydro-1H-pyrrolizin-7a-yl)methoxy)pyrido[4,3-d]pyrimidin-4-yl)-3-azabicyclo[3.2.1]octan-6-ol] | – | –
8 | 824 | 1160 | 954 | 988 | > 10000 | 2200 | 1210 | > 10000 | 927 | 1880 | 980 | Cc1c(Cl)cc2[nH]ncc2c1-c1ncc2c(N3CCC[C@]4(C3)NC(=O)NC4=O)nc(OCC34CCCN3CCC4)nc2c1F [Example 766, (5R)-7-(7-(6-chloro-5-methyl-1H-indazol-4-yl)-8-fluoro-2-((hexahydro-1H-pyrrolizin-7a-yl)methoxy)pyrido[4,3-d]pyrimidin-4-yl)-1,3,7-triazaspiro[4.5]decane-2,4-dione] | – | –
9 | 9 | 10 | 7 | 4 | 1370 | 5 | 11 | 897 | 8 | 4 | 12 | CCc1cccc2cc3[nH]ncc3c(-c3ncc4c(N5CCCC6(CC(=O)N6)C5)nc(OC[C@@]56CCCN5C[C@H](F)C6)nc4c3F)c12 (stereo partly drawn) [Example 771, 6-(7-(5-ethyl-1H-benzo[f]indazol-4-yl)-8-fluoro-2-(((2R,7aS)-2-fluorohexahydro-1H-pyrrolizin-7a-yl)methoxy)pyrido[4,3-d]pyrimidin-4-yl)-1,6-diazaspiro[3.5]nonan-2-one] | – | –
10 | < 2 | < 2 | < 2 | < 2 | > 10000 | 2 | < 2 | 9390 | < 2 | 2 | < 2 | O=C1NC(=O)[C@]2(CCCN(c3nc(OCC45CCCN4CCC5)nc4c(F)c(-c5c(C6CC6)c(Cl)cc6[nH]ncc56)ncc34)C2)N1 [Example 779, (5R)-7-(7-(6-chloro-5-cyclopropyl-1H-indazol-4-yl)-8-fluoro-2-((hexahydro-1H-pyrrolizin-7a-yl)methoxy)pyrido[4,3-d]pyrimidin-4-yl)-1,3,7-triazaspiro[4.5]decane-2,4-dione] | – | –
11 | 2570 | 4370 | 4050 | 2040 | – | 4650 | 2550 | – | 2780 | 3740 | 4220 | Oc1cc(-c2ncc3c(N4C[C@@H]5C[C@H](C4)[C@H](O)C5)nc(OC[C@@]45CCCN4C[C@H](F)C5)nc3c2F)c2ccccc2c1C(F)(F)F [Example 782, (1R,5R,6R)-3-(8-fluoro-2-(((2R,7aS)-2-fluorohexahydro-1H-pyrrolizin-7a-yl)methoxy)-7-(3-hydroxy-4-(trifluoromethyl)naphthalen-1-yl)pyrido[4,3-d]pyrimidin-4-yl)-3-azabicyclo[3.2.1]octan-6-ol] | 5 | -11
12 | 5660 | 8020 | 11000 | 3740 | – | 11700 | 7770 | – | 9220 | 5650 | 10600 | Cc1c(O)cc(-c2ncc3c(N4C[C@@H]5C[C@H](C4)[C@H](O)C5)nc(OC[C@@]45CCCN4C[C@H](F)C5)nc3c2F)c2ccccc12 [Example 790, (1R,5R,6R)-3-(8-fluoro-2-(((2R,7aS)-2-fluorohexahydro-1H-pyrrolizin-7a-yl)methoxy)-7-(3-hydroxy-4-methylnaphthalen-1-yl)pyrido[4,3-d]pyrimidin-4-yl)-3-azabicyclo[3.2.1]octan-6-ol] | 9 | 15
